We go through one compound from US10870832B2, “Use of small molecules to enhance MAFA expression in pancreatic endocrine cells” (Janssen Biotech, Inc., priority 2014, dated 2020).

Molecules are shown by their SMILES.

What all share (assay type): cell-based, human
The subject of assay [1] is MAFA expression. The assay is described as follows: Small molecule screen at Stage 6 or 7, real-time PCR (Example 2). Conditions: added at Stage 7, 1 μM, H1-derived cells at air-liquid interface. Here is the method: Cells of the human embryonic stem cell line H1 (WA01) at passage 42 were seeded as single cells at 1×10^5 cells/cm^2 on MATRIGEL™ (1:30 dilution)-coated dishes in a media comprising of DMEM-F12, GlutaMAX™ (1:100 dilution), 0.25 mM ascorbic acid, 100 ng/ml of FGF2 (R & D systems, MN), 1 ng/ml of TGF-β, ITS-X (1:100 dilution), 2% FAF-BSA, and 20 ng/ml of IGF-1, supplemented with 10 μM of Y-27632. Forty-eight hours post-seeding, the cultures were washed in incomplete PBS (phosphate buffered saline without Mg or Ca) followed by incubation with 1× TrypLE™ Express Enzyme (Life Science; Catalog No. 14190) for 3 to 5 minutes at 37° C. The released cells were rinsed with DMEM-F12 and spun at 1000 rpm for 5 minutes. The resulting cell pellet was resuspended in DMEM-F12 supplemented with 10 μM Y-27632, 1× GlutaMAX™, 0.25 mM ascorbic acid, 100 ng/ml FGF2, 1 ng/ml TGF-β, ITS-X at a 1:100 dilution, 2% FAF-BSA and 20 ng/ml of IGF-1 and the single cell suspension was seeded at approximately 1.3 to 1.5×10^5 cells/cm^2. The cultures were fed every day with medium and differentiation, according to the following protocol, was initiated 48 hours following seeding resulting in an about 90% starting confluency. […]
At Stages 6 or 7, various small molecules were added and their effect was evaluated by real-time PCR.
(In qPCR the cycle at which signal appears reflects the starting amount.)

Assay [2] concerns G6PC2 expression. In words: Stage 7 treatment, real-time PCR of G6PC2 (Example 6). The settings on record: Stage 7, day 7, 2 μM in Stage 7 medium, H1-derived cells, mRNA. How it is done:
(§1) Cells of the human embryonic stem cell line H1 (WA01) were seeded as single cells at 1×10^5 cells/cm^2 on MATRIGEL™ (1:30 dilution) coated dishes in E8 media. At about 70 to 80% confluency, the cultures were washed in 1× incomplete DPBS followed by incubation with 1× TrypLET™ Express Enzyme for 3 to 5 minutes at 37° C. The released cells were rinsed with E8 and spun at 1000 rpm for 5 minutes. The resulting cell pellet was resuspended in E8 supplemented with 10 μM Y-27632 and the single cell suspension was seeded at approximately 1.3 to 1.5×10^5 cells/cm^2. The cultures were fed every day with E8 medium and differentiation, according to the following protocol, was initiated 48 hrs. following seeding resulting in an about 90% starting confluency.
(§2) Stage 6 cells were cultured for seven days in BLAR medium supplemented with a 1:100 dilution of ITS-X; 20 mM glucose (final); 1.5 g/L sodium bicarbonate; 2% FAF-BSA; 10 μg/ml of heparin, 10 μM ZnSO4, 1 μM T3 as 3,3′, 5-triiodo-L-thyronine sodium salt, 10 μM ALK5 inhibitor II, 1 mM N-acetyl cysteine. […]
(§3) At Stage 7, day 7, mRNA was collected and expression of MAFA, UCN3, PDX1, NKX6.1, insulin and G6PC2 evaluated as compared to undifferentiated human stem cells. […]

Assay [3] has as its system MAFA expression. The assay is described as follows: Stage 7 treatment, real-time PCR of MAFA (Example 6). The settings on record: Stage 7, day 7, 2 μM in Stage 7 medium, H1-derived cells, mRNA. Here is the method: as §1, §2, §3

In the case of `Nc1nc(Nc2ccc3c(c2)CC[C@@H](N2CCCC2)CC3)nn1-c1cc2c(nn1)-c1ccccc1CCC2` [R428, 1H-1,2,4-Triazole-3,5-diamine, 1-(6,7-dihydro-5H-benzo[6,7]cyclohepta[1,2-c]pyridazin-3-yl) N3-[(7S)-6,7,8,9-tetrahydro-7-(1-pyrrolidinyl)-5H-benzocyclohepten-2-yl]-], in assay [1], the “expression of MAFA as compared to untreated cultures” value is “significantly upregulated”. In assay [2], the G6PC2 expression entry is listed as “reduces other beta cell maturation markers”. Also, the MAFA expression result in assay [3] was “increases MAFA expression”.
